# Values quoted from earlier work in US20190328869A1, “IMMUNOTHERAPEUTIC PRODUCT AND MDSC MODULATOR COMBINATION THERAPY” (Transgene SA, priority 2016, published 2019).
# Legend:
# [1] = test system: circulating CD34+ MDSCs; settings: head and neck cancer patients; cited from earlier work
# [2] = test system: circulating CD33+HLA-DR− MDSCs; settings: patients with metastatic renal cell carcinoma; cited from earlier work
# [3] = test system: HBV-specific CD4+ and CD8+ T cells in PBMCs; settings: PBMCs from chronically HBV infected patients; cited from earlier work
Structure (SMILES),circulating CD34+ MDSCs [1],clinical outcome [1],circulating CD33+HLA-DR− MDSCs [2],proliferation and IFN-γ production by HBV-specific CD4+ and CD8+ T cells [3]
C=C1CC[C@H](O)C/C1=C/C=C1\CCC[C@]2(C)[C@@H]([C@H](C)CCCC(C)(C)O)CC[C@@H]12 [25-hydroxyvitamin D3],reduced the circulating CD34^+ MDSCs,failed to improve clinical outcome,–,–
"CC1=C(/C=C/C(C)=C/C=C/C(C)=C/C(=O)O)C(C)(C)CCC1 [ATRA, All-trans retinoic acid]",–,–,decreased circulating CD33^+HLA-DR^− MDSCs,restore the proliferation and IFN-γ production
